Measured values reported in the OligoGym collection.
Values joined by “and” are separate entries in the source; they are usually repeats but may differ in a detail not shown here. Equal values may be shown once. After the bases stand the sugars from the 5' end (letter, count) and the backbone: PS all phosphorothioate, else s phosphorothioate and o phosphodiester by linkage. Methylation of C is not given here. e = 2'-O-(2-methoxyethyl) (MOE); k = constrained ethyl (cEt); d = 2'-deoxy (DNA)

Target: IRF4
Conditions: ASO

Sequence	target mRNA inhibition (SK-MEL-28, 4 µM) [%]	target mRNA inhibition (MM.1R, 1 µM)	also measured
TTCTAGGTAATCTGTA (sugars k3 d10 k3, PS)	38	–	–
ATCTGAATTGTTACTA (sugars k3 d10 k3, PS)	12	–	–
GGCCTCCCGCTTGTGG (sugars k3 d10 k3, PS)	-18	–	–
GAATAGAGGAATGGCG (sugars k3 d10 k3, PS)	39	–	–
GATGTGATAGCTGAGC (sugars kdddddddddkekeke, PS)	–	18%	–
TAGAAAGCCCTCACCT (sugars k3 d10 k3, PS)	5	–	–
CTCATAGGTGTACACG (sugars k3 d10 k3, PS)	59	–	–
ATAACGGTGTTTCAGA (sugars k3 d10 k3, PS)	47	–	–
GAGATAAGAAGCACTG (sugars k3 d10 k3, PS)	44	–	–
GAAATGTCAAACCCTA (sugars k3 d10 k3, PS)	71	–	–
GTGACATAAAGGACCC (sugars k3 d10 k3, PS)	–	10%	–
AATGTGTATTACTCTT (sugars kddddddddddkekek, PS)	–	24% and 29%	–
ATGTGTATTACTCTTA (sugars kdddddddddkekeke, PS)	–	36% and 49%	–
CGAAGAATTTTAGCAT (sugars k3 d10 k3, PS)	58	–	–
TAAGTGATAGGTATAC (sugars k3 d10 k3, PS)	60	–	–
CCCTAGGTCATACCCT (sugars k3 d10 k3, PS)	57	–	–
TTTCACATGATAAGGC (sugars k3 d10 k3, PS)	43	–	–
CAGTGATGTCAGGTTT (sugars k2 d9 e3 k2, PS)	–	56%	target mRNA inhibition (MM.1R, 0.074 µM): 0%; target mRNA inhibition (MM.1R, 0.222 µM): 12%; target mRNA inhibition (MM.1R, 0.666 µM): 34%; target mRNA inhibition (MM.1R, 2 µM): 57%
TGGAGATACTTGTACT (sugars k3 d10 k3, PS)	–	42% and 21%	target mRNA inhibition (MM.1R, 0.0625 µM): -15%; target mRNA inhibition (MM.1R, 0.25 µM): -7%; target mRNA inhibition (MM.1R, 4 µM): 58%
CCCATCGAATCTGCCC (sugars k3 d10 k3, PS)	–	-24%	–
GCACATCAATGTTTTA (sugars kkdddddddddkdkdk, PS)	–	11% and 7%	–
AAGCTTGATAAAGGCT (sugars kkdddddddddekeke, PS)	–	38%	–
GAAATGAACCCTAAGT (sugars k3 d10 k3, PS)	–	-5%	–
TTTAGTATCACCTCTA (sugars k3 d10 k3, PS)	–	30%	–
CCAAGGATAACCTGAA (sugars k3 d10 k3, PS)	44	–	–

Sequence	target mRNA inhibition (SK-MEL-28, 4 µM) [%]	target mRNA inhibition (MM.1R, 1 µM)	also measured
GGGAGATCCGGCAGCC (sugars k4 d8 k4, PS)	-13	–	–
GAAAGAGGCACCCTCC (sugars k3 d10 k3, PS)	19	–	–
AGCATTTTATCATCCG (sugars kddddddddddkekek, PS)	–	36%	–
ACTTTTAGAGAGGAGA (sugars kkdddddddddekeke, PS)	–	52%	–
GAAAACTCTAACCCTA (sugars k3 d10 k3, PS)	9	–	–
CACTTTAAAAGTTGAC (sugars k3 d10 k3, PS)	28	–	–
CCCAAGATCGAGCGGT (sugars k3 d10 k3, PS)	28	–	–
TGGTAATCTTCTGGAT (sugars k3 d10 k3, PS)	24	–	–
GGTAAGGGCCCCGTGA (sugars k3 d10 k3, PS)	33	–	–
AAGCAGTCATCACTCT (sugars k3 d10 k3, PS)	38	–	–
TCGCAGGAGCGCGGAG (sugars k3 d10 k3, PS)	-37	–	–
GTGTGCTTGCCAAGCC (sugars k2 d9 e3 k2, PS)	–	75% and 62%	–
AGCGACCCAAATGTGG (sugars k3 d10 k3, PS)	–	-2%	–
GATTGATGTGATAGCT (sugars k3 d10 k3, PS)	56	–	–
GCTGAATTGTCATGAA (sugars k3 d10 k3, PS)	36	–	–
ATTAATTCTCCTATGC (sugars k3 d10 k3, PS)	15	–	–
AGTGATGTCAGGTTTT (sugars kkddddddddddkeke, PS)	–	32%	–
CCTCACTACAGAGCCC (sugars k3 d10 k3, PS)	24	–	–
GCAAAAGAAACGAGTT (sugars k3 d10 k3, PS)	8	–	–
GCTGAACCCCACAGGA (sugars k3 d10 k3, PS)	–	0%	–
GATCACTCAGAATTTT (sugars k3 d10 k3, PS)	50	–	–
TGTAACTCTGAGTAGA (sugars k3 d10 k3, PS)	43	–	–
CTCTATAGTGTTCCAG (sugars k3 d10 k3, PS)	66	–	–
AATGCATAACACGGTG (sugars k3 d10 k3, PS)	49	–	–
CGCTCAAAGACCAGCT (sugars k3 d10 k3, PS)	56	–	–

Sequence	target mRNA inhibition (SK-MEL-28, 4 µM) [%]	target mRNA inhibition (MM.1R, 1 µM)	also measured
CAGAGCTCCGGAGTCA (sugars k3 d10 k3, PS)	–	-6%	–
AGTGACTTGCATCCAT (sugars k2 d9 e3 k2, PS)	–	52%	–
CAGTCTCAAAAACGGG (sugars k3 d10 k3, PS)	51	–	–
AAGCAGTGATGTCAGG (sugars kkdddddddddekeke, PS)	–	65%	–
ATGTGATAGCTGAGCT (sugars kkdddddddddkekek, PS)	–	24%	–
GGCTTTGTGTTTAAGT (sugars k3 d10 k3, PS)	23	–	–
GGGTACATGGCAGTGG (sugars k3 d10 k3, PS)	68	–	target mRNA inhibition (SK-MEL-28, 0.185 µM): 19%; target mRNA inhibition (SK-MEL-28, 5 µM): 76%; target mRNA inhibition (SK-MEL-28, 15 µM): 92%
GCTGTGTGTCAAAGAG (sugars k3 d10 k3, PS)	6	–	–
AGTTTAAGGGTTACGC (sugars k3 d10 k3, PS)	63	4% and 24%	target mRNA inhibition (MM.1R, 0.0625 µM): -2% and 15%; target mRNA inhibition (MM.1R, 0.074 µM): 7%; target mRNA inhibition (MM.1R, 0.222 µM): 8%; target mRNA inhibition (MM.1R, 0.666 µM): 20%; target mRNA inhibition (MM.1R, 2 µM): 28%; target mRNA inhibition (MM.1R, 4 µM): 22% and 40%
AAGTGTCTAAAGTCCC (sugars k2 d9 e3 k2, PS)	–	21% and 46%	–
TTATGTTAGCCAATTC (sugars kkdddddddddekeke, PS)	–	9% and 8%	–
GCTGAGATAGGAAGCA (sugars k3 d10 k3, PS)	19	–	–
GATGGGACCGCCCTGG (sugars k3 d10 k3, PS)	–	-13%	–
GACACTTTTAGAGAGG (sugars k3 d9 k3 e1, PS)	–	24%	–
CTTGATAAAGGCTGAA (sugars kkddddddddddkeke, PS)	–	4%	–
GACAGATGGCATGCGA (sugars k3 d10 k3, PS)	–	16%	–
TGATGTGATAGCTGAG (sugars kddddddddddkekek, PS)	–	18%	–
CCAAACCTTAAGCTAT (sugars k3 d10 k3, PS)	–	18% and 34%	–
CCGCAGAGAGCTAGCA (sugars k3 d10 k3, PS)	-6	–	–
CACGAGGCACCGCACT (sugars k3 d10 k3, PS)	-13	–	–
GCCACCGACTCTTTTT (sugars k3 d10 k3, PS)	–	-5%	–
CATGATGTATACCAAC (sugars k3 d10 k3, PS)	51	–	–
GTAGAGTGAGATGCGG (sugars k3 d10 k3, PS)	–	51% and 40%	target mRNA inhibition (MM.1R, 0.0625 µM): -4%; target mRNA inhibition (MM.1R, 0.25 µM): 16%; target mRNA inhibition (MM.1R, 4 µM): 70%
